According to US20260130395A1, “Water Dispersible Botanical Compositions” (Aquila Black Limited, priority 2021, published 2026):

Assay: Stability of cannabinoid compounds and Vitamin E components in Beverage 2 (AB Red) by LCMSMS
Assay type: physicochemical

CCCCCc1cc(O)c2c(c1)OC(C)(C)[C@@H]1CCC(C)=C[C@@H]21 [D9 THC, delta-9-tetrahydrocannabinol, reference compound]
stability over the entire period (in words) (AB Red stored at 8° C., 570 days): high degree of stability
stability over the entire period (in words) (AB Red stored at 21-25° C., 570 days): high degree of stability
Stability of Plant-Derived Cannabinoid Compounds in AB Red (stored at 8° C., 0 days): 12.9 µg/mL
Stability of Plant-Derived Cannabinoid Compounds in AB Red (stored at 8° C., 1 days): 13.0 µg/mL
Stability of Plant-Derived Cannabinoid Compounds in AB Red (stored at 8° C., 2 days): 13.0 µg/mL
Stability of Plant-Derived Cannabinoid Compounds in AB Red (stored at 8° C., 3 days): 12.7 µg/mL
Stability of Plant-Derived Cannabinoid Compounds in AB Red (stored at 8° C., 5 days): 13.0 µg/mL
Stability of Plant-Derived Cannabinoid Compounds in AB Red (stored at 8° C., 8 days): 12.6 µg/mL
Stability of Plant-Derived Cannabinoid Compounds in AB Red (stored at 8° C., 9 days): 12.7 µg/mL
Stability of Plant-Derived Cannabinoid Compounds in AB Red (stored at 8° C., 10 days): 12.8 µg/mL
Stability of Plant-Derived Cannabinoid Compounds in AB Red (stored at 8° C., 11 days): 12.8 µg/mL
Stability of Plant-Derived Cannabinoid Compounds in AB Red (stored at 8° C., 12 days): 12.9 µg/mL
Stability of Plant-Derived Cannabinoid Compounds in AB Red (stored at 8° C., 15 days): 12.9 µg/mL
Stability of Plant-Derived Cannabinoid Compounds in AB Red (stored at 8° C., 16 days): 12.7 µg/mL
Stability of Plant-Derived Cannabinoid Compounds in AB Red (stored at 8° C., 17 days): 12.6 µg/mL
Stability of Plant-Derived Cannabinoid Compounds in AB Red (stored at 8° C., 18 days): 12.8 µg/mL
Stability of Plant-Derived Cannabinoid Compounds in AB Red (stored at 8° C., 19 days): 12.7 µg/mL
Stability of Plant-Derived Cannabinoid Compounds in AB Red (stored at 8° C., 22 days): 12.7 µg/mL
Stability of Plant-Derived Cannabinoid Compounds in AB Red (stored at 8° C., 23 days): 12.9 µg/mL
Stability of Plant-Derived Cannabinoid Compounds in AB Red (stored at 8° C., 24 days): 12.9 µg/mL
Stability of Plant-Derived Cannabinoid Compounds in AB Red (stored at 8° C., 25 days): 12.9 µg/mL
Stability of Plant-Derived Cannabinoid Compounds in AB Red (stored at 8° C., 26 days): 12.7 µg/mL
Stability of Plant-Derived Cannabinoid Compounds in AB Red (stored at 8° C., 29 days): 12.7 µg/mL
Stability of Plant-Derived Cannabinoid Compounds in AB Red (stored at 8° C., 30 days): 12.9 µg/mL
Stability of Plant-Derived Cannabinoid Compounds in AB Red (stored at 8° C., 60 days): 12.5 µg/mL
Stability of Plant-Derived Cannabinoid Compounds in AB Red (stored at 8° C., 90 days): 13.0 µg/mL
Stability of Plant-Derived Cannabinoid Compounds in AB Red (stored at 8° C., 120 days): 12.4 µg/mL
Stability of Plant-Derived Cannabinoid Compounds in AB Red (stored at 8° C., 150 days): 12.8 µg/mL
Stability of Plant-Derived Cannabinoid Compounds in AB Red (stored at 8° C., 180 days): 12.6 µg/mL
Stability of Plant-Derived Cannabinoid Compounds in AB Red (stored at 8° C., 210 days): 12.3 µg/mL
Stability of Plant-Derived Cannabinoid Compounds in AB Red (stored at 8° C., 240 days): 12.4 µg/mL
Stability of Plant-Derived Cannabinoid Compounds in AB Red (stored at 8° C., 270 days): 12.6 µg/mL
Stability of Plant-Derived Cannabinoid Compounds in AB Red (stored at 8° C., 300 days): 12.4 µg/mL
Stability of Plant-Derived Cannabinoid Compounds in AB Red (stored at 8° C., 330 days): 12.7 µg/mL
Stability of Plant-Derived Cannabinoid Compounds in AB Red (stored at 8° C., 360 days): 12.5 µg/mL
Stability of Plant-Derived Cannabinoid Compounds in AB Red (stored at 8° C., 390 days): 12.4 µg/mL
Stability of Plant-Derived Cannabinoid Compounds in AB Red (stored at 8° C., 420 days): 12.4 µg/mL
Stability of Plant-Derived Cannabinoid Compounds in AB Red (stored at 8° C., 450 days): 12.4 µg/mL
Stability of Plant-Derived Cannabinoid Compounds in AB Red (stored at 8° C., 480 days): 12.2 µg/mL
Stability of Plant-Derived Cannabinoid Compounds in AB Red (stored at 8° C., 510 days): 12.0 µg/mL
Stability of Plant-Derived Cannabinoid Compounds in AB Red (stored at 8° C., 540 days): 11.9 µg/mL
Stability of Plant-Derived Cannabinoid Compounds in AB Red (stored at 8° C., 570 days): 11.8 µg/mL
Stability of Plant-Derived Cannabinoid Compounds in AB Red (stored at 21-25° C., 0 days): 12.9 µg/mL
Stability of Plant-Derived Cannabinoid Compounds in AB Red (stored at 21-25° C., 1 days): 13.0 µg/mL
Stability of Plant-Derived Cannabinoid Compounds in AB Red (stored at 21-25° C., 2 days): 13.0 µg/mL
Stability of Plant-Derived Cannabinoid Compounds in AB Red (stored at 21-25° C., 3 days): 12.6 µg/mL
Stability of Plant-Derived Cannabinoid Compounds in AB Red (stored at 21-25° C., 5 days): 12.4 µg/mL
Stability of Plant-Derived Cannabinoid Compounds in AB Red (stored at 21-25° C., 8 days): 12.7 µg/mL
Stability of Plant-Derived Cannabinoid Compounds in AB Red (stored at 21-25° C., 9 days): 12.8 µg/mL
Stability of Plant-Derived Cannabinoid Compounds in AB Red (stored at 21-25° C., 10 days): 12.5 µg/mL
Stability of Plant-Derived Cannabinoid Compounds in AB Red (stored at 21-25° C., 11 days): 12.9 µg/mL
Stability of Plant-Derived Cannabinoid Compounds in AB Red (stored at 21-25° C., 12 days): 13.0 µg/mL
Stability of Plant-Derived Cannabinoid Compounds in AB Red (stored at 21-25° C., 15 days): 12.7 µg/mL
Stability of Plant-Derived Cannabinoid Compounds in AB Red (stored at 21-25° C., 16 days): 12.4 µg/mL
Stability of Plant-Derived Cannabinoid Compounds in AB Red (stored at 21-25° C., 17 days): 12.9 µg/mL
Stability of Plant-Derived Cannabinoid Compounds in AB Red (stored at 21-25° C., 18 days): 12.8 µg/mL
Stability of Plant-Derived Cannabinoid Compounds in AB Red (stored at 21-25° C., 19 days): 12.8 µg/mL
Stability of Plant-Derived Cannabinoid Compounds in AB Red (stored at 21-25° C., 22 days): 12.9 µg/mL
Stability of Plant-Derived Cannabinoid Compounds in AB Red (stored at 21-25° C., 23 days): 12.9 µg/mL
Stability of Plant-Derived Cannabinoid Compounds in AB Red (stored at 21-25° C., 24 days): 12.5 µg/mL
Stability of Plant-Derived Cannabinoid Compounds in AB Red (stored at 21-25° C., 25 days): 12.5 µg/mL
Stability of Plant-Derived Cannabinoid Compounds in AB Red (stored at 21-25° C., 26 days): 12.4 µg/mL
Stability of Plant-Derived Cannabinoid Compounds in AB Red (stored at 21-25° C., 29 days): 12.7 µg/mL
Stability of Plant-Derived Cannabinoid Compounds in AB Red (stored at 21-25° C., 30 days): 12.4 µg/mL
Stability of Plant-Derived Cannabinoid Compounds in AB Red (stored at 21-25° C., 60 days): 12.2 µg/mL
Stability of Plant-Derived Cannabinoid Compounds in AB Red (stored at 21-25° C., 90 days): 12.8 µg/mL
Stability of Plant-Derived Cannabinoid Compounds in AB Red (stored at 21-25° C., 120 days): 12.4 µg/mL
Stability of Plant-Derived Cannabinoid Compounds in AB Red (stored at 21-25° C., 150 days): 12.4 µg/mL
Stability of Plant-Derived Cannabinoid Compounds in AB Red (stored at 21-25° C., 180 days): 12.8 µg/mL
Stability of Plant-Derived Cannabinoid Compounds in AB Red (stored at 21-25° C., 210 days): 12.4 µg/mL
Stability of Plant-Derived Cannabinoid Compounds in AB Red (stored at 21-25° C., 240 days): 12.5 µg/mL
Stability of Plant-Derived Cannabinoid Compounds in AB Red (stored at 21-25° C., 270 days): 12.5 µg/mL
Stability of Plant-Derived Cannabinoid Compounds in AB Red (stored at 21-25° C., 300 days): 12.4 µg/mL
Stability of Plant-Derived Cannabinoid Compounds in AB Red (stored at 21-25° C., 330 days): 12.1 µg/mL
Stability of Plant-Derived Cannabinoid Compounds in AB Red (stored at 21-25° C., 360 days): 12.6 µg/mL
Stability of Plant-Derived Cannabinoid Compounds in AB Red (stored at 21-25° C., 390 days): 12.1 µg/mL
Stability of Plant-Derived Cannabinoid Compounds in AB Red (stored at 21-25° C., 420 days): 12.2 µg/mL
Stability of Plant-Derived Cannabinoid Compounds in AB Red (stored at 21-25° C., 450 days): 12.2 µg/mL
Stability of Plant-Derived Cannabinoid Compounds in AB Red (stored at 21-25° C., 480 days): 11.8 µg/mL
Stability of Plant-Derived Cannabinoid Compounds in AB Red (stored at 21-25° C., 510 days): 12.3 µg/mL
Stability of Plant-Derived Cannabinoid Compounds in AB Red (stored at 21-25° C., 540 days): 12.2 µg/mL
Stability of Plant-Derived Cannabinoid Compounds in AB Red (stored at 21-25° C., 570 days): 11.8 µg/mL
